{"source": "patent US20260091015A1", "about": "“TREATING IRON DEFICIENCY WITH FERRIC CARBOXYMALTOSE” (PHARMACOSMOS HOLDING A/S, priority 2018, published 2026)", "key": {"[1]": {"assay": "Fractional urinary phosphate excretion, spot urine, trials IDA-04/IDA-05", "format": "in vivo, human", "conditions": "FCM vs IIM", "description": "The term “fractionary urinary excretion of phosphate (FEPi)” (sometimes abbreviated FEPO4) is a measure of how much phosphate is not re-absorbed from the pre-urine in the kidneys, i.e., how much phosphate ends up in the urine as a proportion of how much phosphate the subject has in the blood. It is calculated like this: FEPi=[PO4 (Urine)*Creatinine (Serum)]/[PO4 (Serum)*Creatinine (Urine)]*100. An FEPi of 10-20% (0.1-0.2 fraction) is usually considered to be normal; an FEPi <10% (<0.1 fraction) is usually considered to be low; and an FEPi >20% (>0.2 fraction) is usually considered to be high. Phosphate in urine is measured using the same methodology as for serum.\nThe trial was a randomized, open-label, comparative trial. Subjects with Iron Deficiency Anaemia (IDA) were randomized 1:1 to one treatment course of one of the following treatments: • Group A: iron isomaltoside 1000 (Monofer®, Pharmacosmos, Holbok, Denmark, termed iron isomaltoside in the following), 1000 mg at baseline • Group B: ferric carboxymaltose (Ferinject®/Injectafer®, Vifor Inc, Switzerland), 750 mg at baseline and day 7, cumulative dose: 1500 mg […]"}, "human intact FGF23": {"tested_on": "human intact FGF23", "assay": "Intact FGF23 (iFGF23) over time, two-site ELISA, trials IDA-04/IDA-05", "format": "in vivo", "description": "The trial was a randomized, open-label, comparative trial. Subjects with Iron Deficiency Anaemia (IDA) were randomized 1:1 to one treatment course of one of the following treatments: • Group A: iron isomaltoside 1000 (Monofer®, Pharmacosmos, Holbok, Denmark, termed iron isomaltoside in the following), 1000 mg at baseline • Group B: ferric carboxymaltose (Ferinject®/Injectafer®, Vifor Inc, Switzerland), 750 mg at baseline and day 7, cumulative dose: 1500 mg\nThe secondary safety endpoints were the following: • Incidence of s-phosphate below 1.0 mg/dL at any time from baseline to day 35 • Time with hypophosphatemia (i.e. time with s-phosphate <2.0 mg/dL) from baseline to day 35 • Proportion of subjects with hypophosphatemia at day 35 • Absolute [Δ] and relative [%] changes in s-phosphate from baseline to 1, 7, 8, 14, 21, and 35 • Fractional phosphate urinary excretion at 1, 7, 8, 14, 21, and 35 • Change in iFGF23, cFGF23, vitamin D (25, 1,25, 24,25), PTH, and ionized calcium from baseline to 1, 7, 8, 14, 21, and 35 • Type and incidence of AEs • Serious or severe hypersensitivity reaction starting on or after the first dose of randomized treatment (i.e. treatment emergent). The hypersensitivity terms were defined as standardised Medical Dictionary for Regulatory Activities query (SMQ) terms. […]\nThe following safety laboratory assessments were analysed: • S-phosphate: inorganic phosphorous forms an ammonium phosphomolybdate complex having the formula (NH4)3[PO4](MoO3)12 with ammonium molybdate in the presence of sulfuric acid. The complex was determined photometrically in the ultraviolet region (340 nm) of the spectrum using the Roche Modular and Cobas Analyzer. • iFGF23 and cFGF23: the human intact FGF23 was measured by the 2nd generation Elisa kit manufactured by Immonotropics, Inc, San Clemente, CA. […] The human C-terminal FGF23 was measured by the Elisa kit manufactured by Immonotropics, Inc, San Clemente, CA. […] After evaporation under nitrogen, the residue was reconstituted and analyzed using Liquid Chromatography (LC) with Tandem Mass Spectrometric detection (MS/MS). […] A direct relationship exists between the amount of PTH present in the patient sample and the amount of relative light units (RLUs) detected by the system. • Ionized calcium: Measured by the IL GEM Premier 3500 PAK cartridge. […]"}}}
{"substance": "ferric carboxymaltose [FCM]", "values": [{"measurement": "Fractional urinary excretion of phosphate", "setting": "[1]", "result": "significantly increased"}, {"measurement": "iFGF23 after administration", "setting": "human intact FGF23; first administration (750 mg), then gradually declined over days", "result": "increased sharply"}, {"measurement": "increase in iFGF23 after second dose relative to first dose", "setting": "human intact FGF23; repeated dosing one week apart", "result": "2-3 fold"}, {"measurement": "iFGF23 on the second administration, relative to the initial level", "setting": "human intact FGF23; second administration (750 mg, day 7)", "result": "several fold higher"}]}
